Results from publication PMC10659578, “Mechanism of stepwise electron transfer in six-transmembrane epithelial antigen of the prostate (STEAP) 1 and 2” (eLife, 2023).

Experiments:
[1] = target: T1, cytochrome b5 reductase (b5R) (Mus musculus, UniProt Q9DCN2); assay: rapid-scan stopped-flow FAD reduction; type: biochemical; settings: anaerobic, 1.5 μM b5R with 1.5 μM STEAP1 and 10 μM NADH
T1 construct: gene Cyb5r3
T1 sequence (Q9DCN2 24-301): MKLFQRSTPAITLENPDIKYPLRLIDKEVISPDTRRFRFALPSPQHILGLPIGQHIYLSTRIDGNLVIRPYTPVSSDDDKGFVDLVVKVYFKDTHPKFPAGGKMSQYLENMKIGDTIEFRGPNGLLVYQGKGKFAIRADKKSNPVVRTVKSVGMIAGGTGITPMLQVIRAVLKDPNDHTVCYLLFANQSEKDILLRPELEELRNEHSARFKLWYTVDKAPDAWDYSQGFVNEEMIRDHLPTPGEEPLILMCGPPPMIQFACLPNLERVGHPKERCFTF

[2] = target: T2, STEAP2 (Homo sapiens, UniProt Q8NFT2); assay: cryo-EM structure, […] Å; type: binding
T2 construct: full-length (490 residues), C-terminal His6-tag cleaved by TEV protease; High Five or Sf9 insect cells; LMNG or GDN; homotrimer
T2 sequence (Q8NFT2 1-490): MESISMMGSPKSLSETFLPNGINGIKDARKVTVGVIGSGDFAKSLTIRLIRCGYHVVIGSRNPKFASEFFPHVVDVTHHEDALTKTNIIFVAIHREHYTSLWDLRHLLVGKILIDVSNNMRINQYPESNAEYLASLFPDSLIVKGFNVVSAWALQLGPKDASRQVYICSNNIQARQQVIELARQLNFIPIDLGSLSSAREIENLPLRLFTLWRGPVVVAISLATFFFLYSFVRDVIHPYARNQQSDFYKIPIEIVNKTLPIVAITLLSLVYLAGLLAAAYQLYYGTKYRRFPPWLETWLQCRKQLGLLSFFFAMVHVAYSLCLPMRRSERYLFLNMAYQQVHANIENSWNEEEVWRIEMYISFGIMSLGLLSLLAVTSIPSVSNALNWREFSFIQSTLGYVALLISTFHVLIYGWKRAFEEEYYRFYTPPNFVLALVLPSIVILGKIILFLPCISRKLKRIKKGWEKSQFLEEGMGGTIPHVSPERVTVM

NC(=O)C1=CN([C@@H]2O[C@H](COP(=O)(O)OP(=O)(O)OC[C@H]3O[C@@H](n4cnc5c(N)ncnc54)[C@H](O)[C@@H]3O)[C@@H](O)[C@H]2O)C=CC1 [NADH]
rapid-scan stopped-flow FAD reduction [1]: intermediate B is due to fast FAD reduction in b5R by NADH

NC(=O)c1ccc[n+]([C@@H]2O[C@H](COP(=O)(O)OP(=O)(O)OC[C@H]3O[C@@H](n4cnc5c(N)ncnc54)[C@H](OP(=O)(O)O)[C@@H]3O)[C@@H](O)[C@H]2O)c1 [NADP^+]
cryo-EM structure, 3.2 Å ([2]; complex with FAD and heme, OxRD site): Heme, FAD, and NADP^+ are unambiguously resolved in the density map

Cc1cc2nc3c(=O)[nH]c(=O)nc-3n(C[C@H](O)[C@H](O)[C@H](O)COP(=O)(O)OP(=O)(O)OC[C@H]3O[C@@H](n4cnc5c(N)ncnc54)[C@H](O)[C@@H]3O)c2cc1C [FAD]
cryo-EM structure, 3.2 Å ([2]; complex with NADP+ and heme, extended conformation, isoalloxazine ring in TMD, adenine stacks on Trp152 of OxRD): Heme, FAD, and NADP^+ are unambiguously resolved in the density map
